Assays:
[1] = in vitro; conditions: human, liver microsomes
[2] = in vitro; conditions: human, liver microsomes; remark: listed apart in the source

SMILES | remaining at 0.5 h, 2 µM [1] [%] | remaining at 1 h, 2 µM [2] [%]
Cc1nc2n(c(=O)c1CCN1CCC(c3noc4cc(F)ccc34)CC1)CCCC2 [RISPERIDONE] | 100 | 75
Cc1nc2n(c(=O)c1CCN1CCC(c3noc4cc(F)ccc34)CC1)CCCC2O (centres undefined) [PALIPERIDONE] | 100 | 100

Reference: ChEMBL document CHEMBL4043141, “Synthesis and biological investigation of tetrahydropyridopyrimidinone derivatives as potential multireceptor atypical antipsychotics” (Bioorg Med Chem, 2017)
